# From patent US10239843B2 (CANCER RESEARCH TECHNOLOGY LIMITED, priority 2014, dated 2019)
# Read-outs that look alike come from different tables or passages of the source.
# Columns and labels:
# [1] = target: Human Full Length PARG (Homo sapiens (Human), UniProt Q86W56); test: PARG enzyme assay (TR-FRET); type: biochemical
# [2] = tested on: PARG in HeLa cell line; test: PARG cell assay (PAR chain immunofluorescence after MMS); type: cell-based; conditions: HeLa cells
# Method: This method is based on the detection of endogenous levels of poly (ADP) ribose chains present in the nucleus of HeLa cell line using indirect immunofluorescence. MMS stimulation increases PAR chains for up to 25 mins. After that point, PARG is active and breaks down the PAR chains, until by one hour after stimulation no PAR chains are detectable. Inhibition of PARG maintains PAR chains.
# Briefly, following compound treatment and treatment with the DNA damaging agent methylmethanesulfonate (MMS), the cell monolayer is fixed, then permeabilised and incubated with a mouse monoclonal antibody raised against multimers of poly(ADP) ribose.
# At the end of the 1 h dosing period, MMS was added to duplicates at a final concentration of 50 μg/mL, for a further hour.
# Media was tipped off and the cells fixed with 50 μL ice-cold 95% MetOH/PBS for 15 mins at −20° C. Following a PBS wash, 50 μL PBS/0.1% Triton was added to the cells for 20 mins. Following another PBS wash, anti-PAR antibody (Calbiochem AM80) was diluted 1:4000 in a buffer (PBS+0.5% FBS+0.05% Tween20) and added to the cells and incubated overnight at 4° C.
# Cells were washed three times with PBS and the plate sealed with a light-proof seal.
# [3] = Homo sapiens, MMS treatment, read-out: PARG Cell IC50
# [4] = read-out: PARG Biochem IC50 Geomean
# [5] = Homo sapiens, MMS 50 μg/mL, read-out: PARG Cell IC50 Geomean
# [6] = MMS treatment, read-out: PARG Cell IC50
# [7] = MMS 50 μg/mL, read-out: PARG Cell IC50 Geomean
# Chain of Human Full Length PARG (Q86W56 whole entry): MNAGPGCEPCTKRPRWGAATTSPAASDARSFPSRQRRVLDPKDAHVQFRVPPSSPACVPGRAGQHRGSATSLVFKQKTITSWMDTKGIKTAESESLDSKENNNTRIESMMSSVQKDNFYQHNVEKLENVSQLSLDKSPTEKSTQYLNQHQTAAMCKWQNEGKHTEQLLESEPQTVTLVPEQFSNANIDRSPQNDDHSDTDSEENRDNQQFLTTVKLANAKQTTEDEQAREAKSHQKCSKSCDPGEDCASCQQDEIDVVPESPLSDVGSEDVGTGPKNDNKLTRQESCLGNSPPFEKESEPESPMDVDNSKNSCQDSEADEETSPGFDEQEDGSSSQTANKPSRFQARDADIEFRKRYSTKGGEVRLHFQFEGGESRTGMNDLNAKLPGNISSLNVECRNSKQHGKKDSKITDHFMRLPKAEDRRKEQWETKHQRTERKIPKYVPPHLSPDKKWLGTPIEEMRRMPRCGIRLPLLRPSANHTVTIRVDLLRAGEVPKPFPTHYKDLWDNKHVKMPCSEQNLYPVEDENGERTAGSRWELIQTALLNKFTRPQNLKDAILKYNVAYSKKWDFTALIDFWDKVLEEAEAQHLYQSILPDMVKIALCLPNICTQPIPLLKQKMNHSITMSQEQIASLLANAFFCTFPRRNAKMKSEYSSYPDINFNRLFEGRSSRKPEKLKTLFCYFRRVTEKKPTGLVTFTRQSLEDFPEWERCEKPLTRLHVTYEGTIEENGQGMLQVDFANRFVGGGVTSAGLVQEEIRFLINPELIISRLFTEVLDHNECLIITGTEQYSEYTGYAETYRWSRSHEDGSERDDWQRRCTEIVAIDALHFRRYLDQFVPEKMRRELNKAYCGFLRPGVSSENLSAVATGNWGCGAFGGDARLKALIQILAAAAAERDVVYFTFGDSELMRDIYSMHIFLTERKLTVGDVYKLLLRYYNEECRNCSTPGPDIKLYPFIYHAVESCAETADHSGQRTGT
Compound,IC50 ([1]; read-out: PARG Biochem IC50) [nM],"IC50 [2, 3] [nM]","IC50 [1, 4] [nM]",other results
"Cc1ccc(Cn2c(=O)n(Cc3cnn(C)c3)c(=O)c3cc(S(=O)(=O)NC4(CF)CC4)ccc32)nc1 [Example 537, N-[1-(Fluoromethyl)cyclopropyl]-3-[(1-methylpyrazol-4-yl)methyl]-1-[(5-methyl-2-pyridyl)methyl]-2,4-dioxo-quinazoline-6-sulfonamide]",189,181,,
Cn1cc(Cn2c(=O)c3cc(S(=O)(=O)NC4(C)CC4)ccc3n(CC3(F)COC3)c2=O)cn1 [Example 348],,,101,"IC50 [2, 5]: 328 nM"
"Cn1cc(Cn2c(=O)c3cc(S(=O)(=O)NC4(C)CC4)ccc3n(CC(F)F)c2=O)cn1 [Example 599, 1-(2,2-Difluoroethyl)-N-(1-methylcyclopropyl)-3-[(1-methylpyrazol-4-yl)methyl]-2,4-dioxo-quinazoline-6-sulfonamide]",263,93,,
Cc1ncc(Cn2c(=O)c3cc(S(=O)(=O)NC4(C)CC4)ccc3n(C)c2=O)s1 [Example 109],,,483,"IC50 [2, 5]: 288 nM"
"Cc1cc(Cn2c(=O)c3cc(S(=O)(=O)NC4(CF)CC4)ccc3n(Cc3cnn(C)c3)c2=O)on1 [Example 555, N-[1-(Fluoromethyl)cyclopropyl]-3-[(3-methylisoxazol-5-yl)methyl]-1-[(1-methylpyrazol-4-yl)methyl]-2,4-dioxo-quinazoline-6-sulfonamide]",49,86,,
"CNC(=O)c1cc(S(=O)(=O)NC2(C)CC2)cc2c(=O)n(Cc3cnn(C)c3)c(=O)[nH]c12 [Example 450, N-Methyl-6-[(1-methylcyclopropyl)sulfamoyl]-3-[(1-methylpyrazol-4-yl)methyl]-2,4-dioxo-1H-quinazoline-8-carboxamide]",213,2520,,
CC(C)n1c(=O)n(Cc2cnn(C)c2)c(=O)c2cc(S(=O)(=O)NC3(C)CC3)ccc21 [Example 292],,,341,"IC50 [2, 5]: 221 nM"
COc1ccc(Cn2c(=O)n(C)c(=O)c3cc(S(=O)(=O)NC4(C)CC4)ccc32)cc1 [Example 61],,,454,"IC50 [2, 5]: 199 nM"
"Cn1cc(Cn2c(=O)c3cc(S(=O)(=O)NC4(C)CC4)c(F)cc3n(CC3(C)COC3)c2=O)cn1 [Example 398, 7-Fluoro-3-((1-methyl-1H-pyrazol-4-yl)methyl)-N-(1-methylcyclopropyl)-1-((3-methyloxetan-3-yl)methyl)-2,4-dioxo-1,2,3,4-tetrahydroquinazoline-6-sulfonamide]",44,257,,
"Cc1ncc(Cn2c(=O)n(Cc3cnn(C)c3)c(=O)c3cc(S(=O)(=O)NC4(CF)CC4)ccc32)o1 [Example 548, N-[1-(Fluoromethyl)cyclopropyl]-1-[(2-methyloxazol-5-yl)methyl]-3-[(1-methylpyrazol-4-yl)methyl]-2,4-dioxo-quinazoline-6-sulfonamide]",34,63,,
"Cn1cc(CN2C(=O)c3cccc4cc(S(=O)(=O)NC5(C)CC5)cc(c34)C2=O)cn1 [Example 454, N-(1-Methylcyclopropyl)-2-[(1-methylpyrazol-4-yl)methyl]-1,3-dioxo-benzo[de]isoquinoline-5-sulfonamide]",728,2070,,
"Cn1cc(Cn2c(=O)c3cc(S(=O)(=O)NC4(CF)CC4)ccc3n(Cc3cnco3)c2=O)cn1 [Example 564, N-[1-(Fluoromethyl)cyclopropyl]-3-[(1-methylpyrazol-4-yl)methyl]-1-(oxazol-5-ylmethyl)-2,4-dioxo-quinazoline-6-sulfonamide]",38,127,,
"Cc1cc(Cn2c(=O)[nH]c3ccc(S(=O)(=O)NC4(CF)CC4)cc3c2=O)on1 [Example 516, N-[1-(Fluoromethyl)cyclopropyl]-3-[(3-methylisoxazol-5-yl)methyl]-2,4-dioxo-1H-quinazoline-6-sulfonamide]",443,807,,
"Cc1cc(Cn2c(=O)c3cc(S(=O)(=O)NC4(C)CC4)ccc3n(CC(=O)N3CCC3)c2=O)on1 [Example 414, 1-[2-(Azetidin-1-yl)-2-oxo-ethyl]-N-(1-methylcyclopropyl)-3-[(3-methylisoxazol-5-yl)methyl]-2,4-dioxo-quinazoline-6-sulfonamide]",2080,,,"IC50 [2, 6]: 9220 nM"
Cn1cc(Cn2c(=O)c3cc(S(=O)(=O)NC4(C#N)CC4)ccc3n(CC3(C)COC3)c2=O)cn1 [Example 376],,,124,"IC50 [2, 5]: 14300 nM"
"Cn1cc(Cc2cc3cc(S(=O)(=O)NC4(C)CC4)ccc3[nH]c2=O)cn1 [Example 486, N-(1-Methylcyclopropyl)-3-[(1-methylpyrazol-4-yl)methyl]-2-oxo-1H-quinoline-6-sulfonamide]",1620,2280,,
COCCCn1c(=O)n(Cc2cnn(C)c2)c(=O)c2cc(S(=O)(=O)NC3(C)CC3)ccc21 [Example 239],,,209,"IC50 [2, 7]: 127 nM"
"Cc1nc(Cn2c(=O)n(Cc3cnn(C)c3)c(=O)c3cc(S(=O)(=O)NC4(CF)CC4)ccc32)n(C)n1 [Example 547, 1-[(2,5-Dimethyl-1,2,4-triazol-3-yl)methyl]-N-[1-(fluoromethyl)cyclopropyl]-3-[(1-methylpyrazol-4-yl)methyl]-2,4-dioxo-quinazoline-6-sulfonamide]",188,751,,
Cc1cc(Cn2c(=O)c3cc(S(=O)(=O)NC4(C)CC4)ccc3n(CC3CCCC3)c2=O)on1 [Example 289],,,280,"IC50 [2, 7]: 129 nM"
"COC(C)(C)Cn1c(=O)n(Cc2cc(C)no2)c(=O)c2cc(S(=O)(=O)NC3(C)CC3)ccc21 [Example 413, 1-(2-Methoxy-2-methyl-propyl)-N-(1-methylcyclopropyl)-3-[(3-methylisoxazol-5-yl)methyl]-2,4-dioxo-quinazoline-6-sulfonamide]",469,305,,
"Cn1cc(Cn2c(=O)c3cc(S(=O)(=O)NC4(CF)CC4)ccc3n(CC3COC3)c2=O)cn1 [Example 445, N-[1-(Fluoromethyl)cyclopropyl]-3-[(1-methylpyrazol-4-yl)methyl]-1-(oxetan-3-ylmethyl)-2,4-dioxo-quinazoline-6-sulfonamide]",102,417,,
"Cc1cc(Cn2c(=O)c3cc(S(=O)(=O)NC4(CF)CC4)ccc3n(Cc3csc(C)n3)c2=O)on1 [Example 550, N-[1-(Fluoromethyl)cyclopropyl]-3-[(3-methylisoxazol-5-yl)methyl]-1-[(2-methylthiazol-4-yl)methyl]-2,4-dioxo-quinazoline-6-sulfonamide]",191,,,"IC50 [2, 6]: 134 nM"
"CCc1nnc(Cn2c(=O)c3cc(S(=O)(=O)NC4(CF)CC4)ccc3n(C)c2=O)s1 [Example 628, 3-[(5-Ethyl-1,3,4-thiadiazol-2-yl)methyl]-N-[1-(fluoromethyl)cyclopropyl]-1-methyl-2,4-dioxo-quinazoline-6-sulfonamide]",2690,736,,
"Cc1cc(Cn2c(=O)c3cc(S(=O)(=O)NC4(C)CC4)ccc3n(CC3(C)CCC3)c2=O)on1 [Example 467, 1-[(1-Methylcyclobutyl)methyl]-N-(1-methylcyclopropyl)-3-[(3-methylisoxazol-5-yl)methyl]-2,4-dioxo-quinazoline-6-sulfonamide]",361,214,,
Cn1cc(Cn2c(=O)c3cc(S(=O)(=O)NC4(C#N)CC4)ccc3n(C)c2=O)cn1 [Example 344],,,491,"IC50 [2, 5]: 2110 nM"
